In brackets after ≈: the same amount, converted by molar mass.
Legend:
[1] = system: NL4-3 virus (HIV, wild-type); test: Anti-HIV activity assay (TZM-bl cell model), NL4-3 wild-type; format: cell-based; settings: human, TZM-bl cells infected with HIV-1 NL4-3 virus; CC50 (TZM-bl) / EC50 (NL4-3); read-out: SI, selective index, ratio of toxic CC50 value to active EC50 value
Procedure: (§1) The assay was carried out by reference to the document (Dang, Z, et al. J. Med. Chem. 2009, 52, 7887-7891). In particular, in a 96-well cell culture plate, solutions of the compounds to be tested at different concentrations were mixed with TZM-bl cells (from National Institutes of Health (NIH)) infected with 200 TCID50 NL4-3 virus, respectively. 2 days later, the culture medium was removed, 100 μl of Bright Glo reagent was added to each well, and Victor 2 luminometer was used to detect the […] of the cells.

[2] = system: NL4-3 virus; test: as above; format: cell-based; settings: Human immunodeficiency virus 1, NL43, TZM-bl, read-out: EC50, concentration effective to inhibit the replication of half of viruses
Procedure: as §1

[3] = TZM-bl cytotoxicity assay (XTT); format: cell-based; settings: human, TZM-bl cells, read-out: CC50, concentration effective to inhibit the growth of half of cells
Procedure: The assay was carried out by reference to the document (Dang, Z, et al. J. Med. Chem. 2009, 52, 7887-7891). In particular, in a 96-well cell culture plate, solutions of Compounds 1-57 at different concentrations (100 μl) were mixed with an equivalent volume of TZM-bl cells (from National Institutes of Health (NIH)) (5×10^5/mL), and were incubated at 37° C. for 4 d. 50 μl of freshly prepared XTT solution (1 mg/mL) containing 0.02 μM PMS was added. Optical density at 450 nm was measured 4 h later.

[4] = system: multi-drug resistant viral strain of HIV-1 RT (RTMDR); test: Activity against drug-resistant virus RTMDR; format: cell-based; settings: Human immunodeficiency virus 1, read-out: Drug-resistant viruses EC50, RTMDR
[5] = system: K101E drug-resistant virus; test: Activity against drug-resistant virus K101E; format: cell-based, HIV; settings: Human immunodeficiency virus 1, read-out: Drug-resistant viruses EC50, K101E
[6] = system: E138K drug-resistant virus; test: Activity against drug-resistant virus E138K; format: cell-based, HIV; settings: Human immunodeficiency virus 1, read-out: Drug-resistant viruses EC50, E138K
[7] = Water-solubility at pH2.0; format: physicochemical; settings: for solubility: aqueous medium (water) at pH 2.0, pH 2, simulated gastric fluid
[8] = Incubation experiment of human liver microsomes; format: in vitro ADME; settings: for half-life: read-out: HLM t1/2

Structure (SMILES)	selectivity ratio at 2 days [1]	EC50 [2] [nM]	CC50 at 4 d [3] [nM]	EC50 [4] [nM]	EC50 [5] [nM]	EC50 [6] [nM]	Water-solubility [7] [µg/mL]	HLM t1/2 [8] [min]	solubility [7] [µg/mL]	half-life [8] [min]
Cc1cc(CCC#N)cc(C)c1Oc1cc(Nc2ccc(C#N)cc2)c(N)cc1C(F)(F)F [Compound 2, 5-(4″-cyanoethyl-2″,6″-dimethylphenoxy)-N^1-(4′-cyanophenyl)-4-trifluoromethyl-1,2-phenylenediamine]	> 6280	1.13	> 7100	3.2	47.6	34.4	0.33	55.7		
COC(=O)c1cc(N)c(Nc2ccc(C#N)cc2)cc1Oc1c(C)cc(CCC#N)cc1C [Compound 4, 5-(4″-cyanoethyl-2″,6″-dimethylphenoxy)-N^1-(4′-cyanophenyl)-4-methoxycarbonyl-1,2-phenylenediamine]	> 5260	4.3	> 22700	4.1	14	7.5		186	1.21 (≈ 2.75 µM)	
Cc1cc(CCC#N)cc(C)c1Oc1cc(Nc2ccc(C#N)cc2)c(N)cc1CO [Compound 6, 5-(4″-cyanoethyl-2″,6″-dimethylphenoxy)-N^1-(4′-cyanophenyl)-4-hydroxymethyl-1,2-phenylenediamine]	61000	0.39	> 23800	1.8	3.4	2.9		20.9	18.8 (≈ 45.6 µM)	
COc1cc(CCC#N)cc(Br)c1Oc1ccc(N)c(Nc2ccc(C#N)cc2)n1 [Compound 26A]	6560	3.25	21000	3.46	3.89	6.93			1.77 (≈ 3.81 µM)	54.7
N#CCCc1cc(Br)c(Oc2ccc(N)c(Nc3ccc(C#N)cc3)n2)c(Br)c1 [Compound 28]	24900	0.33	8210	0.74	7.63	4.11			3.26 (≈ 6.35 µM)	23
Cc1cc(CCC#N)cc(C)c1Oc1cc(Nc2ccc(C#N)cc2)c(N)cc1CNC1CC1 [Compound 34, 5-(4″-cyanoethyl-2″,6″-dimethylphenoxy)-N^1-(4′-cyanophenyl)-4-(2-cyclopropylaminomethyl)-1,2-phenylenediamine]	> 9430	0.53	> 5000	4.88	27.3	25.7			9.11 (≈ 20.2 µM)	42

From patent US9340492B2, “Meta-Diarylaniline or meta-diarylpyridinamine compound, preparation method and medical uses thereof” (INSTITUTE OF PHARMACOLOGY AND TOXICOLOGY ACADEMY OF …, priority 2012, dated 2016)
